Experimental findings from paper PMC7993375, “Discovery of novel quinoline-based analogues of combretastatin A-4 as tubulin polymerisation inhibitors with apoptosis inducing activity and potent anticancer effect” (Journal of Enzyme Inhibition and Medicinal Chemistry, 2021) are described below.

Assay [1] concerns MCF-7 cells. The assay is described as follows: Colony formation assay. Format: cell-based, human. The following applies: 50 and 250 nM. On the procedure:
MCF-7 cells (600 cells per well) were seeded in 6-well plates and incubated for 24 h before being then treated with different doses of the compound 12c (50 and 250 nM) for 14 days. Following, the cells were washed with PBS twice and subsequently fixed with 4% paraformaldehyde and stained with 0.05% crystal violet for 30 min. Finally, cells were visualised using an inverted microscope.

The subject of assay [2] is MCF-7 cells. The assay is described as follows: Mitochondrial membrane potential (DiOC2(3), annexin V, flow cytometry). Format: cell-based, human. Particulars: 24 h, untreated 1.1%. How it is done: Mitochondrial membrane potential (Δψmt) was measured by flow cytometry with DiOC2(3) staining and additional labelling with an annexin V conjugate. After treatment with compound 12c (50 and 250 nM) and CA-4 (50 nM), cells were stained with DiOC2(3) dye for 30 min in the incubator, then harvested and washed with PBS. DiOC2(3)-stained cells were resuspended with 1X annexin binding buffer, followed by addition of annexin V conjugate and incubated at 37 °C for 15 min. The data from the flow cytometry were analysed by Cell Quest software. Production of intracellular reactive oxygen species (ROS) was measured using 2,7–dichlorofluorescin diacetate (H2-DCFDA) dye. MCF-7 cells were seeded and treated either with vehicle (0.1% DMSO) or with compound 12c (50 and 250 nM) or CA-4 (50 nM) for 6, 12 and 24 h. H2O2 was used as a positive control. The amount of ROS generated was estimated after 2 h of selected compound treatment. The cells were collected by centrifugation and washed twice with PBS. Cells were then incubated with DCFDA dye (25 µM) in dark at 37 °C for 1 h. Fluorescence spectra (510 − 600 nm) were monitored using an excitation wavelength of 488 nm[53]^,[54].
On the technique in general: Flow cytometry measures light scatter and fluorescence of single cells or particles in a stream.

Regarding `COc1cc(C2=NC(=Cc3cc4ccc(C)cc4nc3OC)C(=O)O2)cc(OC)c1OC` [Compound 12c, 4-[(2-Methoxy-7-methylquinolin-3-yl)methylene]-2–(3,4,5-trimethoxyphenyl) oxazol-5(4H)-one], the “clonogenic formation potential of MCF-7 cells” value in assay [1] is listed as “suppressed the clonogenic formation potential of MCF-7 cells in a dose dependent manner”. Also, the “percentage of apoptotic cells with decrease in MMP” value in assay [2] (50 nM) is reported as 24.9%; in assay [2] (250 nM) it was 31.3%.
